Laboratory results taken from patent publication US20170303817A1, “SURGICAL ARTICLES AND METHODS FOR DETECTION” (GEORGIA STATE UNIVERSITY RESEARCH FOUNDATION, INC., priority 2014, published 2017).

Tests used:
[1] = In vivo detection of ICG sponge in canine surgical site, 780 nm laser; parameters: species or system dog; details: FIG. 7
Procedure: Method: A stray female dog (Doberman […]) underwent an ovariohysterectomy procedure. After making an incision in the dog's abdomen, a standard 4×4 surgical gauze was placed inside the surgical site and allowed to become saturated with blood. A 780 nm laser was focused on a portion of the gauze and the area photographed and observed for excitation. This experiment was repeated using a sponge soaked in 1 mM ICG dye solution for 1 hr and a sponge soaked in 1 mM ICG dye solution for 24 hrs. Prior to in vivo use, the sponges first underwent sterilization: Steam sterilization at 350° F. for 20 min and gas sterilization in ethylene oxide for 12-24 hr.

[2] = NIR dye leaching from sponges: fluorescence of canine blood samples; details: for fluorescence of test canine blood sample (ICG leaching): blood and DMSO in a 1:3 ratio

Compound: CC1(C)C(/C=C/C=C/C=C/C=C2\N(CCCCS(=O)(=O)O)c3ccc4ccccc4c3C2(C)C)=[N+](CCCCS(=O)(=O)[O-])c2ccc3ccccc3c21 [ICG, indocyanine green]
- fluorescence of sponge soaked for 24 hrs compared to sponge soaked for 1 hr ([1]; 1 mM ICG dye solution): increase in florescence
- fluorescence of treated sponge compared to the untreated sponge ([1]; sponge treated with 1 mM ICG solution): significant increase in the fluorescence
- fluorescence of test canine blood sample (ICG leaching) ([2]; 1 hr after sponge placement): no fluorescence
- fluorescence of test canine blood sample (ICG leaching) ([2]; 4 hours after sponge placement): no fluorescence
- fluorescence wavelength in control canine blood sample ([2]; canine blood spiked with 0.1 mM solution of ICG in DMSO, FIG. 8): 815 nm
